Consider six compounds from patent US8076487B2, “Pyridone derivative and herbicide” (Kumiai Chemical Industry Co., Ltd., priority 2006, dated 2011).

Common to all, as to type: in vivo
Test [1] relates to barnyardgrass (Echinochloa crus-galli (L.) P. Beauv. var. crus-galli). The test is described as follows: Test Example 2: herbicidal effect by soil application to upland field. The conditions noted are these: soil surface spray, upland field soil, 1,000 g active ingredient per hectare, 21st day after application. The gist of the method: (§1)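 After sowing and covering, the soil received an even aqueous spray of wettable powder at a rate of 1,000 g active ingredient/ha (1,000 L/ha). Ratings of herbicidal effect followed a standard scale 21 days post-treatment, with plants held in a greenhouse.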

Test [2] concerns green foxtail (Setaria viridis (L.) P. Beauv.). The test is described as above. The following applies: soil surface spray, upland field soil, 1,000 g active ingredient per hectare, 21st day after application. An outline of the steps: as §1
The subject of test [3] is slender amaranth (Amaranthus viridis L.). Described as above. The following applies: soil surface spray, upland field soil, 1,000 g active ingredient per hectare, 21st day after application. The gist of the method:
as §1

Test [4] relates to velvetleaf (Abutilon theophrasti medicus). Described as above. The conditions noted are these: soil surface spray, upland field soil, 1,000 g active ingredient per hectare, 21st day after application. An outline of the steps:
as §1

In test [5] the test system is barnyardgrass (Echinochloa crus-galli (L.) P. Beauv. var. crus-galli). Nature of the test: Test Example 3: herbicidal effect by application to upland field (foliage treatment). The conditions noted are these: foliage treatment, plants grown two weeks, 1,000 g active ingredient per hectare, 14th day after application. The gist of the method:
(§2)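 A single foliar application of a water-diluted wettable powder, at 1,000 g of active ingredient per hectare, was made to plants raised for two weeks from seed in field soil. Herbicidal activity was judged visually after a further 14 days in the greenhouse.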

Test [6] deals with green foxtail (Setaria viridis (L.) P. Beauv.). The description is as above. The following applies: foliage treatment, plants grown two weeks, 1,000 g active ingredient per hectare, 14th day after application. The gist of the method:
as §2

Test [7] relates to slender amaranth (Amaranthus viridis L.). The description is as above. The conditions noted are these: foliage treatment, plants grown two weeks, 1,000 g active ingredient per hectare, 14th day after application. The gist of the method:
as §2

Test [8] concerns velvetleaf (Abutilon theophrasti medicus). The test is described as above. The conditions noted are these: foliage treatment, plants grown two weeks, 1,000 g active ingredient per hectare, 14th day after application. The gist of the method: as §2
The test system of test [9] is Japanese bulrush (Scirpus juncoides Roxb.). Nature of the test: Test Example 1: herbicidal effect by soil application to paddy field. The conditions noted are these: paddy field soil application; active ingredient 1,000 g per 1 hectare; wettable powder added dropwise to water surface the day after sowing; examined on the 21st day after application. An outline of the steps: (§3)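 Under greenhouse conditions, seeds sown on puddled paddy soil in 100 cm2 pots under 3 cm of standing water received the test compound; injury was assessed with a standard scoring scheme three weeks (day 21) after treatment.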

The test system of test [10] is early watergrass (Echinochloa oryzicola Vasing). The description is as above. The conditions noted are these: paddy field soil application; active ingredient 1,000 g per 1 hectare; wettable powder added dropwise to water surface the day after sowing; examined on the 21st day after application. The gist of the method: as §3
In test [11] the test system is heartshape false pickerelweed (Monochoria vaginalis (Burm.f.) C.Presl). The test is described as above. The conditions noted are these: paddy field soil application; active ingredient 1,000 g per 1 hectare; wettable powder added dropwise to water surface the day after sowing; examined on the 21st day after application. The gist of the method: as §3

On to `O=C1CCCC(O)=C1C(=O)c1ccc(C(F)(F)F)n(-c2ccc(C(F)(F)F)cc2)c1=O` [I-86], for which the “herbicidal effect (index), Barnyardgrass” value in [1] was 5 (90% or more of herbicidal effect and crop phytotoxicity); in [5], 5 (90% or more of herbicidal effect and crop phytotoxicity). For the same compound, the “herbicidal effect (index), Green Foxtail” value is 5 (90% or more of herbicidal effect and crop phytotoxicity) in test [2]; 5 (90% or more of herbicidal effect and crop phytotoxicity) in test [6]. The “herbicidal effect (index), Slender Amaranth” value was 5 (90% or more of herbicidal effect and crop phytotoxicity) in test [3]; 5 (90% or more of herbicidal effect and crop phytotoxicity) in test [7]. For the same compound, the “herbicidal effect (index), Velvetleaf” value was 5 (90% or more of herbicidal effect and crop phytotoxicity) in test [4]; 5 (90% or more of herbicidal effect and crop phytotoxicity) in test [8]. Moreover, the “herbicidal effect, Scirpus juncoides Roxb.” value in [9] was 5 (90% or more of herbicidal effect and crop phytotoxicity). Moreover, in test [10], the “herbicidal effect, Echinochloa oryzicola Vasing” value is 5 (90% or more of herbicidal effect and crop phytotoxicity). Besides, the “herbicidal effect, Monochoria vaginalis (Burm. f.) C. Presl” value (“herbicidal effect, Monochoria vaginalis” below) in test [11] was 5 (90% or more of herbicidal effect and crop phytotoxicity).

As for `O=C1CCCC(O)=C1C(=O)c1ccc(C(F)(F)F)n(-c2cccc([N+](=O)[O-])c2)c1=O` [I-87], the “herbicidal effect (index), Barnyardgrass” value in test [1] was 5 (90% or more of herbicidal effect and crop phytotoxicity); in [5], 5 (90% or more of herbicidal effect and crop phytotoxicity). The “herbicidal effect (index), Green Foxtail” value in test [2] was 5 (90% or more of herbicidal effect and crop phytotoxicity); in test [6], 5 (90% or more of herbicidal effect and crop phytotoxicity). The “herbicidal effect (index), Slender Amaranth” value in test [3] was 5 (90% or more of herbicidal effect and crop phytotoxicity); in [7], 5 (90% or more of herbicidal effect and crop phytotoxicity). Moreover, the “herbicidal effect (index), Velvetleaf” value in test [4] was 5 (90% or more of herbicidal effect and crop phytotoxicity); in test [8], 5 (90% or more of herbicidal effect and crop phytotoxicity). Moreover, in test [9], the “herbicidal effect, Scirpus juncoides Roxb.” value was 5 (90% or more of herbicidal effect and crop phytotoxicity). Also, the “herbicidal effect, Echinochloa oryzicola Vasing” value in test [10] was 5 (90% or more of herbicidal effect and crop phytotoxicity). Moreover, the “herbicidal effect, Monochoria vaginalis” value in test [11] was 5 (90% or more of herbicidal effect and crop phytotoxicity).

In the case of `O=C1CCCC(O)=C1C(=O)c1ccc(C(F)(F)F)n(-c2ccc([N+](=O)[O-])cc2)c1=O` [I-88], the “herbicidal effect (index), Barnyardgrass” value is 5 (90% or more of herbicidal effect and crop phytotoxicity) in test [1]; 5 (90% or more of herbicidal effect and crop phytotoxicity) in [5]. Besides, the “herbicidal effect (index), Green Foxtail” value in test [2] is 5 (90% or more of herbicidal effect and crop phytotoxicity); in [6] it was 5 (90% or more of herbicidal effect and crop phytotoxicity). In addition, the “herbicidal effect (index), Slender Amaranth” value in [3] is 5 (90% or more of herbicidal effect and crop phytotoxicity); in [7], 5 (90% or more of herbicidal effect and crop phytotoxicity). For the same compound, the “herbicidal effect (index), Velvetleaf” value in [4] is 5 (90% or more of herbicidal effect and crop phytotoxicity); in [8], 5 (90% or more of herbicidal effect and crop phytotoxicity). Also, the “herbicidal effect, Scirpus juncoides Roxb.” value in test [9] was 5 (90% or more of herbicidal effect and crop phytotoxicity). Further, the “herbicidal effect, Echinochloa oryzicola Vasing” value in [10] was 5 (90% or more of herbicidal effect and crop phytotoxicity). Besides, the “herbicidal effect, Monochoria vaginalis” value in test [11] is 5 (90% or more of herbicidal effect and crop phytotoxicity).

For the compound `Cc1ccc(-n2c(C(F)(F)F)ccc(C(=O)C3=C(O)CCCC3=O)c2=O)cc1` [I-89], the “herbicidal effect (index), Barnyardgrass” value in test [1] was 5 (90% or more of herbicidal effect and crop phytotoxicity); in test [5], 5 (90% or more of herbicidal effect and crop phytotoxicity). For the same compound, the “herbicidal effect (index), Green Foxtail” value was 5 (90% or more of herbicidal effect and crop phytotoxicity) in [2]; 5 (90% or more of herbicidal effect and crop phytotoxicity) in [6]. In addition, the “herbicidal effect (index), Slender Amaranth” value in test [3] is 5 (90% or more of herbicidal effect and crop phytotoxicity); in test [7], 5 (90% or more of herbicidal effect and crop phytotoxicity). Besides, the “herbicidal effect (index), Velvetleaf” value in [4] is 5 (90% or more of herbicidal effect and crop phytotoxicity); in test [8], 5 (90% or more of herbicidal effect and crop phytotoxicity). Besides, in test [9], the “herbicidal effect, Scirpus juncoides Roxb.” value is 5 (90% or more of herbicidal effect and crop phytotoxicity). In addition, the “herbicidal effect, Echinochloa oryzicola Vasing” value in test [10] was 5 (90% or more of herbicidal effect and crop phytotoxicity). Further, the “herbicidal effect, Monochoria vaginalis” value in test [11] is 5 (90% or more of herbicidal effect and crop phytotoxicity).

`O=C1CCCC(O)=C1C(=O)c1ccc(C(F)(F)F)n(-c2ccc(Br)cc2)c1=O` [I-90]: the “herbicidal effect (index), Barnyardgrass” value in [1] is 5 (90% or more of herbicidal effect and crop phytotoxicity); in test [5], 5 (90% or more of herbicidal effect and crop phytotoxicity). Besides, the “herbicidal effect (index), Green Foxtail” value in test [2] was 5 (90% or more of herbicidal effect and crop phytotoxicity); in [6] it was 5 (90% or more of herbicidal effect and crop phytotoxicity). Further, the “herbicidal effect (index), Slender Amaranth” value is 5 (90% or more of herbicidal effect and crop phytotoxicity) in test [3]; 5 (90% or more of herbicidal effect and crop phytotoxicity) in [7]. The “herbicidal effect (index), Velvetleaf” value was 5 (90% or more of herbicidal effect and crop phytotoxicity) in [4]; 5 (90% or more of herbicidal effect and crop phytotoxicity) in test [8]. Also, in test [9], the “herbicidal effect, Scirpus juncoides Roxb.” value was 5 (90% or more of herbicidal effect and crop phytotoxicity). In addition, the “herbicidal effect, Echinochloa oryzicola Vasing” value in test [10] was 5 (90% or more of herbicidal effect and crop phytotoxicity). The “herbicidal effect, Monochoria vaginalis” value in [11] was 5 (90% or more of herbicidal effect and crop phytotoxicity).

Turning to `O=C1CCCC(O)=C1C(=O)c1ccc(C(F)(F)F)n(-c2ccccc2F)c1=O` [I-91], the “herbicidal effect (index), Barnyardgrass” value in test [1] is 5 (90% or more of herbicidal effect and crop phytotoxicity); in [5] it was 5 (90% or more of herbicidal effect and crop phytotoxicity). The “herbicidal effect (index), Green Foxtail” value in test [2] was 5 (90% or more of herbicidal effect and crop phytotoxicity); in test [6], 4 (70 to less than 90% of herbicidal effect and crop phytotoxicity). Moreover, the “herbicidal effect (index), Slender Amaranth” value in test [3] was 5 (90% or more of herbicidal effect and crop phytotoxicity); in test [7], 5 (90% or more of herbicidal effect and crop phytotoxicity). Also, the “herbicidal effect (index), Velvetleaf” value in [4] was 5 (90% or more of herbicidal effect and crop phytotoxicity); in test [8] it was 5 (90% or more of herbicidal effect and crop phytotoxicity). Also, the “herbicidal effect, Scirpus juncoides Roxb.” value in test [9] was 5 (90% or more of herbicidal effect and crop phytotoxicity). Also, the “herbicidal effect, Echinochloa oryzicola Vasing” value in test [10] was 5 (90% or more of herbicidal effect and crop phytotoxicity). For the same compound, in test [11], the “herbicidal effect, Monochoria vaginalis” value was 5 (90% or more of herbicidal effect and crop phytotoxicity).
